For 27 compounds, IC50 and Ki results are on record in patent publication US20040097594A1 (priority 1998, published 2004).

One experiment concerns HIV-1 (strain IIIB). Kind of experiment: microbe, parasite or virus in culture. In kind it is cell-based. Conditions: Human immunodeficiency virus 1, 120 h; MT4 cells infected with HIV-1 strain IIIB, 5 days; lower line of each compound's entry; read-out: IC50 (MT-4 cells).
For another experiment, the target named is HIV-1 protease (Human immunodeficiency virus type 1 group M subtype B, UniProt P04585). Kind of experiment: biochemical.
The mark [1] stands for this setting: HIV-1 protease, upper line of each compound's entry, read-out: Ki (enzyme).

Where two headings read alike, the source gives them in different places.

The term IC50 denotes the concentration that gives 50% inhibition. In general, Ki refers to a measure of affinity in units of concentration, obtained from inhibition or displacement. Consider `COC(=O)NCCNc1cccc(S(=O)(=O)N(CC(O)C(Cc2ccccc2)NC(=O)OC2COC3OCCC23)OC2CCCC2)c1` (mixture of isomers) [Compound 124, (3R,3aS,6aR)hexahydrofuro[2,3-b]furan-3-yl N-[(1S,2R)-1-benzyl-3-((cyclopentyloxy)[3-(2-[(methoxycarbonyl)amino]ethylamino)phenyl]sulfonylamino)-2-hydroxypropyl]carbamate and (3S,3aR,6aS)hexahydrofuro[2,3-b]furan-3-yl N-[(1S,2R)-1-benzyl-3-((cyclopentyloxy)[3-(2-[(methoxycarbonyl)amino]ethylamino)phenyl]sulfonylamino)-2-hydroxypropyl)carbamate], for which, in the experiment on HIV-1 (strain IIIB), the IC50 is at most 0.1 µM. On HIV-1 protease (setting [1]), the Ki was below 0.001 µM.
For `CONC(=O)CNc1cccc(S(=O)(=O)N(CC(O)C(Cc2ccccc2)NC(=O)OC2COC3OCCC23)OC2CCCC2)c1` (mixture of isomers) [Example 168, (3R,3aS,6aR)hexahydrofuro[2,3-b]furan-3-yl N-[(1S,2R)-1-benzyl-3-((cyclopentyloxy)[3-(2-[methoxyamino]-2-oxoethylamino)phenyl]sulfonylamino)-2-hydroxypropyl]carbamate and (3S,3aR,6aS)hexahydrofuro[2,3-b]furan-3-yl N-[(1S,2R)-1-benzyl-3-((cyclopentyloxy)[3-(2-[methoxyamino]-2-oxoethylamino)phenyl]sulfonylamino)-2-hydroxypropyl]carbamate], in that order: at most 0.1 µM and below 0.001 µM.
For `CCN(C)C(=O)CNc1cccc(S(=O)(=O)N(CC(O)C(Cc2ccccc2)NC(=O)OC2COC3OCCC23)OC2CCCC2)c1` (mixture of isomers) [Example 170, (3R,3aS,6aR)hexahydrofuro[2,3-b]furan-3-yl N-[(1S,2R)-1-benzyl-3-((cyclopentyloxy)[3-(2-[ethyl(methyl)amino]-2-oxoethylamino)phenyl]sulfonylamino)-2-hydroxypropyl)carbamate and (3S,3aR,6aS)hexahydrofuro[2,3-b]furan-3-yl N-[(1S,2R)-1-benzyl-3-((cyclopentyloxy)[3-(2-[ethyl(methyl)amino]-2-oxoethylamino)phenyl]sulfonylamino)-2-hydroxypropyl]carbamate], in that order: at most 0.1 µM and below 0.001 µM.
For `Nc1cccc(S(=O)(=O)N(C[C@@H](O)[C@H](Cc2ccccc2)NC(=O)O[C@H]2CO[C@H]3OCC[C@H]32)OC2CCCC2)c1` (single isomer, unassigned) [Compound 77], in that order: at most 0.1 µM and below 0.001 µM.
For `O=C(N[C@@H](Cc1ccccc1)[C@H](O)CC(OC1CCCC1)S(=O)(=O)c1ccc2nccnc2c1)OC1CCOC1` (stereo in doubt) [Compound 110, (3S)tetrahydro-3-furanyl N-[(1S,2R)-1-benzyl-4-(cyclopentyloxy)-2-hydroxy-4-(6-quinoxalinylsulfonyl)butyl]carbamate], in the experiment with HIV-1 (strain IIIB), the IC50 was 0.1 to 0.5 µM. The Ki on HIV-1 protease (setting [1]) is below 0.001 µM.
For `CC(C)ON(C[C@@H](O)[C@H](Cc1ccccc1)NC(=O)OC(C)(C)C)S(=O)(=O)c1cccc(N)c1` [Compound 1], in that order: above 1 µM and 0.01 to 0.1 µM.
Take `CC(C)ON(C[C@@H](O)[C@H](Cc1ccccc1)NC(=O)OC(C)(C)C)S(=O)(=O)c1ccc(N)c(N)c1` [Compound 2]: the IC50 in the experiment on HIV-1 (strain IIIB) is above 1 µM. Further, the Ki on HIV-1 protease (setting [1]) fell in the range of 0.01 to 0.1 µM.
For `CC(C)ON(C[C@@H](O)[C@H](Cc1ccccc1)NC(=O)OC(C)(C)C)S(=O)(=O)c1ccc2[nH]cnc2c1` [Compound 3], in that order: above 1 µM and 0.01 to 0.1 µM.
For `CC(C)ON(C[C@@H](O)[C@H](Cc1ccccc1)NC(=O)OC(C)(C)C)S(=O)(=O)c1ccc2[nH]c(=O)[nH]c2c1` [Compound 4], in that order: above 1 µM and 0.01 to 0.1 µM.
For `CC(C)ON(C[C@@H](O)[C@H](Cc1ccccc1)NC(=O)OC(C)(C)C)S(=O)(=O)c1ccc2[nH]c(NS(C)(=O)=O)nc2c1` [Compound 5], in that order: 0.5 to 1 µM and 0.001 to 0.01 µM.
In the case of `COc1ccc(S(=O)(=O)N(C[C@@H](O)[C@H](Cc2ccccc2)NC(=O)OC(C)(C)C)OC(C)C)cc1` [Compound 6], in the experiment on HIV-1 (strain IIIB), the half-inhibitory concentration (IC50) is above 1 µM. This compound showed a Ki on HIV-1 protease of 0.01 to 0.1 µM.
On to `COc1ccc(S(=O)(=O)N(C[C@@H](O)[C@H](Cc2ccccc2)NC(=O)OC(C)(C)C)OC2CCCC2)cc1` [Compound 7], for which the IC50 in the experiment with HIV-1 (strain IIIB) was above 1 µM. On HIV-1 protease, this compound returned a Ki of 0.001 to 0.01 µM.
On to `CC(C)(C)OC(=O)N[C@@H](Cc1ccccc1)[C@H](O)CN(OC1CCCC1)S(=O)(=O)c1ccc2[nH]c(NC(=O)N3CCOCC3)nc2c1` [Compound 8], for which the IC50 in the experiment with HIV-1 (strain IIIB) was in the range of 0.5 to 1 µM. On HIV-1 protease (setting [1]), the Ki is below 0.001 µM.
For `CC(C)(C)OC(=O)N[C@@H](Cc1ccccc1)[C@H](O)CN(OC1CCCC1)S(=O)(=O)c1cccc(N)c1` [Compound 11, tert-butyl N-(1S,2R)-3-[[(3-aminophenyl)sulfonyl](cyclopentyloxy)amino]-1-benzyl-2-hydroxypropylcarbamate], in that order: above 1 µM and 0.001 to 0.01 µM.
For `CN(C)C(=O)Nc1nc2cc(S(=O)(=O)N(C[C@@H](O)[C@H](Cc3ccccc3)NC(=O)OC(C)(C)C)OC3CCCC3)ccc2[nH]1` [Compound 14, Tert-butyl N-(1S,2R)-1-benzyl-3-[(cyclopentyloxy)(2-[(dimethylamino-carbonyl)amino]-1H-benzimidazol-5-ylsulfonyl)amino]-2-hydroxypropylcarbamate], in that order: 0.1 to 0.5 µM and below 0.001 µM.
For `CCC(C)ON(C[C@@H](O)[C@H](Cc1ccccc1)NC(=O)OC(C)(C)C)S(=O)(=O)c1ccc(OC)cc1` (stereo partly drawn) [Compound 15, tert-butyl N-((1S,2R)-1-benzyl-3-sec-butoxy[(4-methoxyphenyl)sulfonyl]amino-2-hydroxypropyl)carbamate], in that order: above 1 µM and 0.001 to 0.01 µM.
On to `COc1ccc(S(=O)(=O)N(C[C@@H](O)[C@H](Cc2ccccc2)NC(=O)OC(C)(C)C)OCC2CCCCC2)cc1` [Compound 16, tert-butyl N-((1S,2R)-1-benzyl-3-(cyclohexylmethoxy)[(4-methoxyphenyl)sulfonyl]amino-2-hydroxypropyl)carbamate], for which the IC50 in the experiment with HIV-1 (strain IIIB) is above 1 µM. Moreover, the Ki on HIV-1 protease (setting [1]) is 0.01 to 0.1 µM.
For `COc1ccc(S(=O)(=O)N(C[C@@H](O)[C@H](Cc2ccccc2)NC(=O)OC(C)(C)C)Oc2ccccc2)cc1` [Compound 17, tert-butyl N-(1S,2R)-1-benzyl-2-hydroxy-3-[[(4-methoxyphenyl)sulfonyl](phenoxy)amino]propylcarbamate], in that order: above 1 µM and 0.01 to 0.1 µM.
For `COc1ccc(S(=O)(=O)N(C[C@@H](O)[C@H](Cc2ccccc2)NC(=O)OC(C)(C)C)OC2CCOCC2)cc1` [Compound 18, tert-butyl N-(1S,2R)-1-benzyl-2-hydroxy-3-[[(4-methoxyphenyl)sulfonyl](tetrahydro-2H-pyran-4-yloxy)amino]propylcarbamate], in that order: above 1 µM and 0.001 to 0.01 µM.
For `COc1ccc(S(=O)(=O)N(C[C@@H](O)[C@H](Cc2ccccc2)NC(=O)OC(C)(C)C)OCC2CCCCO2)cc1` (stereo partly drawn) [Compound 19, tert-butyl N-(1S,2R)-1-benzyl-2-hydroxy-3-[[(4-methoxyphenyl)sulfonyl](tetrahydro-2H-pyran-2-ylmethoxy)amino]propylcarbamate], in that order: above 1 µM and 0.01 to 0.1 µM.
For `COc1ccc(S(=O)(=O)N(C[C@@H](O)[C@H](Cc2ccccc2)NC(=O)OC(C)(C)C)OC2CCOC2)cc1` (stereo partly drawn) [Compound 20, tert-butyl N-(1S,2R)-1-benzyl-2-hydroxy-3-[[(4-methoxyphenyl)sulfonyl](tetrahydro-3-furanyloxy)amino]propylcarbamate], the IC50 in the experiment with HIV-1 (strain IIIB) was above 1 µM. For the same compound, at HIV-1 protease (setting [1]), the Ki lay in the range of 0.001 to 0.01 µM.
For `COc1ccc(S(=O)(=O)N(C[C@@H](O)[C@H](Cc2ccccc2)NC(=O)OC(C)(C)C)OCc2ccccc2)cc1` [Compound 21, tert-butyl N-((1S,2R)-1-benzyl-3-(benzyloxy)[(4-methoxyphenyl)sulfonyl]amino-2-hydroxypropyl)carbamate], in that order: above 1 µM and 0.01 to 0.1 µM.
With `COc1ccc(S(=O)(=O)N(C[C@@H](O)[C@H](Cc2ccccc2)NC(=O)OC(C)(C)C)OCC(C)C)cc1` [Compound 22, tert-butyl N-((1S,2R)-1-benzyl-2-hydroxy-3-isobutoxy[(4-methoxyphenyl)sulfonyl]aminopropyl)carbamate], the IC50 in the experiment with HIV-1 (strain IIIB) is above 1 µM. The same compound returned a Ki on HIV-1 protease of 0.001 to 0.01 µM.
For `COc1ccc(S(=O)(=O)N(C[C@@H](O)[C@H](Cc2ccccc2)NC(=O)OC(C)(C)C)OC2CCCCC2)cc1` [Compound 23, tert-butyl N-((1S,2R)-1-benzyl-3-(cyclohexyloxy)[(4-methoxyphenyl)sulfonyl]amino-2-hydroxypropyl)carbamate], in that order: above 1 µM and 0.001 to 0.01 µM.
Regarding `COc1ccc(S(=O)(=O)N(C[C@@H](O)[C@H](Cc2ccccc2)NC(=O)OCc2ccccc2)OC2CCCC2)cc1` [Compound 24, Phenylmethyl N-((1S,2R)-1-benzyl-3-(cyclopentyloxy)[(4-methoxyphenyl)sulfonyl]amino-2-hydroxypropyl)carbamate], the IC50 with HIV-1 (strain IIIB) was above 1 µM. Besides, at HIV-1 protease (setting [1]), the Ki was below 0.001 µM.
For `COc1ccc(S(=O)(=O)N(C[C@@H](O)[C@H](Cc2ccccc2)NC(=O)OCc2cccnc2)OC2CCCC2)cc1` [Compound 25, 3-pyridylmethyl N-((1S,2R)-1-benzyl-3-(cyclopentyloxy)[(4-methoxyphenyl)sulfonyl]amino-2-hydroxypropyl)carbamate], in that order: 0.5 to 1 µM and below 0.001 µM.
For `COc1ccc(S(=O)(=O)N(C[C@@H](O)[C@H](Cc2ccccc2)NC(=O)c2ccccc2C)OC2CCCC2)cc1` [Compound 26, N^1-((1S,2R)-1-benzyl-3-(cyclopentyloxy)[(4-methoxyphenyl)sulfonyl]amino-2-hydroxypropyl)-2-methylbenzamide], in that order: above 1 µM and 0.001 to 0.01 µM.
